Test results from US9278981B2, “Compounds and compositions for inhibiting the activity of ABL1, ABL2 and BCR-ABL1” (Novartis AG, priority 2012, dated 2016).
pIC50: −log10 of the molar value.

How the values were obtained:
[1] = biological target: T1, ABL1 (64-515) (Homo sapiens (Human), UniProt P00519); experiment: Radio ABL1 (64-515) assay (radiometric filter-binding); format: biochemical
[2] = biological target: T1, ABL1 (64-515); experiment: Caliper ABL1 (64-515) assay (microfluidic mobility shift); format: biochemical

T1 sequence (P00519 64-515): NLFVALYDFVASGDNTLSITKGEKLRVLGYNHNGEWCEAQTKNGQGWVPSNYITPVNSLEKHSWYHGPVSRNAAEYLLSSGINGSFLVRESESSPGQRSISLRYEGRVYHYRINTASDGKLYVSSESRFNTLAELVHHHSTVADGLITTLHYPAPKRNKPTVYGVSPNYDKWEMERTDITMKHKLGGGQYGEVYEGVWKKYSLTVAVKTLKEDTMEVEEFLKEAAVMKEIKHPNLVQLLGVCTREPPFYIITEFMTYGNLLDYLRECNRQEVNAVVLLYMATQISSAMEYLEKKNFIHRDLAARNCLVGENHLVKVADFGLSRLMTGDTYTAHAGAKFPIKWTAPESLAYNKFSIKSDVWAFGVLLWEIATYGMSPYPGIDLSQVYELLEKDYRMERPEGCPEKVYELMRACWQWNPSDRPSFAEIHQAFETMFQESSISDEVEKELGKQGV

Nc1ncc(-c2cc(C(=O)Nc3ccc(OC(F)(F)F)cc3)cnc2N2CC[C@@H](O)C2)cc1F [Example 241, (R)-6′-Amino-5′-fluoro-2-(3-hydroxypyrrolidin-1-yl)-N-(4-(trifluoromethoxy)phenyl)-[3,3′-bipyridine]-5-carboxamide]
pIC50 [1]: 8.77 | pIC50 [2]: 8.89

CCN(CCO)c1ncc(C(=O)Nc2ccc(SC(F)(F)F)cc2)cc1-c1cncnc1 [Example 195, 6-(Ethyl(2-hydroxyethyl)amino)-5-(pyrimidin-5-yl)-N-(4-((trifluoromethyl)thio)phenyl)nicotinamide]
pIC50 [1]: 8.52 | pIC50 [2]: > 9.89

COC(=O)c1cc(F)cc(-c2cc(C(=O)Nc3ccc(OC(F)(F)F)cc3)cnc2N2CC[C@@H](O)C2)c1 [Example 62, (R)-Methyl 3-fluoro-5-(2-(3-hydroxypyrrolidin-1-yl)-5-((4-(trifluoromethoxy)phenyl)carbamoyl)pyridin-3-yl)benzoate]
pIC50 [1]: 8.40 | pIC50 [2]: 8.68

O=C(Nc1ccc(OC(F)(F)F)cc1)c1cnc(N2CCNC3(CC3)C2)c(-c2cncnc2)c1 [Example 229]
pIC50 [1]: 9.00 | pIC50 [2]: 8.62

O=C(Nc1ccc(OC(F)(F)Cl)cc1)c1ccc(N2C[C@H](O)[C@@H](O)C2)c(-c2cncnc2)c1 [Example 244, N-(4-(Chlorodifluoromethoxy)phenyl)-4-((3S,4S)-3,4-dihydroxypyrrolidin-1-yl)-3-(pyrimidin-5-yl)benzamide]
pIC50 [1]: 9.00 | pIC50 [2]: 9.22

O=C(Nc1ccc(OC(F)(F)F)cc1)c1cnc(N2CC[C@@H](O)C2)c(-c2cncc(F)c2)c1 [Example 45, (R)-5′-Fluoro-2-(3-hydroxypyrrolidin-1-yl)-N-(4-(trifluoromethoxy)phenyl)-[3,3′-bipyridine]-5-carboxamide]
pIC50 [1]: > 8.52 | pIC50 [2]: 8.96

N#Cc1cncc(-c2cc(C(=O)Nc3ccc(OC(F)(F)F)cc3)cnc2N2CC[C@@H](O)C2)c1 [Example 54, (R)-5′-Cyano-2-(3-hydroxypyrrolidin-1-yl)-N-(4-(trifluoromethoxy)phenyl)-[3,3′-bipyridine]-5-carboxamide]
pIC50 [1]: 8.30 | pIC50 [2]: 9.05

N[C@H]1CN(c2ccc(C(=O)Nc3ccc(OC(F)(F)Cl)cc3)cc2-c2cncnc2)C[C@@H]1O [Example 245, 4-((3S,4S)-3-Amino-4-hydroxypyrrolidin-1-yl)-N-(4-(chlorodifluoromethoxy)phenyl)-3-(pyrimidin-5-yl)benzamide]
pIC50 [1]: 8.30 | pIC50 [2]: 9.00

Cc1ncccc1-c1cc(C(=O)Nc2ccc(OC(F)(F)Cl)cc2)cnc1N1CC[C@@H](O)C1 [Example 270]
pIC50 [1]: 8.70 | pIC50 [2]: 9.22

N#Cc1cncc(-c2cc(C(=O)Nc3ccc(OC(F)(F)F)c(F)c3)cnc2N2CC[C@H](CO)C2)c1 [Example 203, (S)-5′-Cyano-N-(3-fluoro-4-(trifluoromethoxy)phenyl)-2-(3-(hydroxymethyl)pyrrolidin-1-yl)-[3,3′-bipyridine]-5-carboxamide]
pIC50 [1]: 9.00 | pIC50 [2]: 9.05

O=C(Nc1ccc(OC(F)(F)F)cc1)c1cnc(N2CC[C@@H](O)C2)c(-c2cccc(F)c2)c1 [Example 58, (R)-5-(3-Fluorophenyl)-6-(3-hydroxypyrrolidin-1-yl)-N-(4-(trifluoromethoxy)phenyl)nicotinamide]
pIC50 [1]: 8.40 | pIC50 [2]: 9.22

NC1CN(c2ncc(C(=O)Nc3ccc(OC(F)(F)Cl)cc3)cc2-c2cncnc2)C1 [Example 259]
pIC50 [1]: 8.29 | pIC50 [2]: > 9.89

O=C(Nc1ccc(OC(F)(F)F)cc1)c1ccc(N2C[C@H](O)[C@@H](O)C2)c(-c2cncnc2)c1 [Example 7, 4-((3S,4S)-3,4-Dihydroxypyrrolidin-1-yl)-3-(pyrimidin-5-yl)-N-(4-(trifluoromethoxy)phenyl)benzamide]
pIC50 [1]: > 8.52 | pIC50 [2]: 8.92

O=C(Nc1ccc(OC(F)(F)F)cc1)c1cnc(N2CC[C@@H](O)C2)c(-c2cc(F)cc(F)c2)c1 [Example 61, (R)-5-(3,5-Difluorophenyl)-6-(3-hydroxypyrrolidin-1-yl)-N-(4-(trifluoromethoxy)phenyl)nicotinamide]
pIC50 [1]: 8.40 | pIC50 [2]: 9.30

CC(=O)NC[C@H]1CCN(c2ncc(C(=O)Nc3ccc(OC(F)(F)Cl)cc3)cc2-c2cncnc2)C1 [Example 178, (R)-6-(3-(Acetamidomethyl)pyrrolidin-1-yl)-N-(4-(chlorodifluoromethoxy)phenyl)-5-(pyrimidin-5-yl)nicotinamide]
pIC50 [1]: 7.89 | pIC50 [2]: 9.40

O=C(Nc1ccc(OC(F)(F)F)cc1)c1ccc(N2C[C@H](O)[C@@H](O)C2)c(-c2cccnc2)c1 [Example 8, 4-((3S,4S)-3,4-Dihydroxypyrrolidin-1-yl)-3-(pyridin-3-yl)-N-(4-(trifluoromethoxy)phenyl)benzamide]
pIC50 [1]: 7.89 | pIC50 [2]: 8.55

O=C(Nc1ccc(OC(F)(F)F)cc1)c1cnc(N2CC[C@@H](O)C2)c(-c2ccc(C(F)(F)F)nc2)c1 [Example 51, (R)-2-(3-Hydroxypyrrolidin-1-yl)-N-(4-(trifluoromethoxy)phenyl)-6′-(trifluoromethyl)-[3,3′-bipyridine]-5-carboxamide]
pIC50 [1]: > 8.52 | pIC50 [2]: 8.54

N#Cc1cncc(-c2cc(C(=O)Nc3ccc(SC(F)(F)F)cc3)cnc2N2CC[C@@H](O)C2)c1 [Example 188, (R)-5′-Cyano-2-(3-hydroxypyrrolidin-1-yl)-N-(4-((trifluoromethyl)thio)phenyl)-[3,3′-bipyridine]-5-carboxamide]
pIC50 [1]: 8.40 | pIC50 [2]: 9.70

NC12CC1CN(c1ncc(C(=O)Nc3ccc(OC(F)(F)Cl)cc3)cc1-c1cncnc1)C2 (centres unmarked) [Example 252]
pIC50 [1]: 8.08 | pIC50 [2]: 9.30

O=C(Nc1ccc(OC(F)(F)F)c(Cl)c1)c1cnc(N2CC[C@@H](O)C2)c(-c2cncnc2)c1 [Example 204, (R)—N-(3-Chloro-4-(trifluoromethoxy)phenyl)-6-(3-hydroxypyrrolidin-1-yl)-5-(pyrimidin-5-yl)nicotinamide]
pIC50 [1]: > 8.52 | pIC50 [2]: 8.37

Nc1ncc(-c2cc(C(=O)Nc3ccc(OC(F)(F)F)cc3)cnc2N2CCCC2)cn1 [Example 68, 5-(2-Aminopyrimidin-5-yl)-6-(pyrrolidin-1-yl)-N-(4-(trifluoromethoxy)phenyl)nicotinamide]
pIC50 [1]: > 8.52 | pIC50 [2]: 9.05

NC1CN(c2ncc(C(=O)Nc3ccc(OC(F)(F)F)cc3)cc2-c2cncc(F)c2)C1 [Example 238, 2-(3-Aminoazetidin-1-yl)-5′-fluoro-N-(4-(trifluoromethoxy)phenyl)-[3,3′-bipyridine]-5-carboxamide]
pIC50 [1]: 8.70 | pIC50 [2]: 8.59

O=C(Nc1ccc(OC(F)(F)F)cc1)c1cnc(N2CCC3(COC3)C2)c(-c2cncnc2)c1 [Example 116, 5-(Pyrimidin-5-yl)-6-(2-oxa-6-azaspiro[3.4]octan-6-yl)-N-(4-(trifluoromethoxy)phenyl)nicotinamide]
pIC50 [1]: > 8.52 | pIC50 [2]: 8.46

O=C(Nc1ccc(OC(F)(F)Cl)cc1)c1cnc(N2CC(O)C2)c(-c2cncnc2)c1 [Example 258]
pIC50 [1]: 8.57 | pIC50 [2]: 8.96

O=C(Nc1ccc(OC(F)(F)F)cc1)c1cnc(N2C[C@@H](O)[C@@H](O)C2)c(-c2cncc(F)c2)c1 [Example 235, 2-(cis-3,4-Dihydroxypyrrolidin-1-yl)-5′-fluoro-N-(4-(trifluoromethoxy)phenyl)-[3,3′-bipyridine]-5-carboxamide]
pIC50 [1]: 8.70 | pIC50 [2]: 8.74
